Measured values published in article PMC9780499, “Designing double-site lipidated peptide amphiphiles as potent antimicrobial biomaterials to combat multidrug-resistant bacteria” (Frontiers in Microbiology, 2022).
Values after ≈ are worked out from the molar mass of the structure shown. Like-named read-outs stand apart in the source and are kept apart here. Ends that are not written are not given here. Peptide text beside a SMILES is read from it. * marks the point of attachment. Decanoyl = CCCCCCCCCC(=O)*; Butyryl = CCCC(=O)*

Columns and labels:
E. coli HP73 = assay: microbe, parasite or virus in culture; assay type: cell-based, Escherichia coli; conditions: read-out: MICs, E. coli HP73
Text: (§1) Escherichia coli ATCC25922, E. coli UB1005, Pseudomonas aeruginosa ATCC27853, Salmonella typhimurium ATCC14028, S. typhimurium C7731, Staphylococcus aureus ATCC29213, Methicillin-resistant S. aureus (MRSA) ATCC43300, S. epidermidis ATCC12228, and Enterococcus faecalis ATCC29212 were stored by the institute of animal nutrition, Northeast Agricultural University (Harbin, China). Multidrug-Resistant E. coli HP73 and E. coli HP74 were clinically isolated from swine-derived Escherichia coli and stored by the institute of animal nutrition, Northeast Agricultural University (Harbin, China).
(§2) The MICs were determined using a broth microdilution method with reference to Clinical and Laboratory Standards Institute (CLSI) guidelines ([Wiegand et al., 2008]). After a two-fold serial dilution of the peptides (50 μl, dilution buffer: 0.01% acetic acid containing 0.2% BSA) prepared in a 96-well plate, a series of an equal volume of bacterial solution (50 μl) prepared in Mueller-Hinton broth (MHB) were added to the same 96-well plate, and the final bacterial inoculum size in each well of the 96-well plate was approximately 5 × 10^5 CFU/ml. As positive and negative controls, bacteria solution without peptides and blank samples without bacteria were prepared in the same 96-well plate. […] The lowest peptide concentration at which there was no increase in optical density was referred to as the MIC.

E. coli HP74 = assay: microbe, parasite or virus in culture; assay type: cell-based, Escherichia coli; conditions: read-out: MICs, E. coli HP74
Text: as §1, §2

HEK293T = assay: MTT cytotoxicity assay; assay type: cell-based, human; conditions: 1 day incubation; for Cytotoxicity toward HEK293T: at the test concentrations
Procedure: (§3) 3-(4,5-dimethylthiozol-2-yl)-2,5-diphenyltetrazolium bromide (MTT) assay and live/dead cell staining assay were conducted to assess the peptide cytotoxicity. For the MTT assay, cell lines were seeded and passaged twice in high-glucose Dulbecco’s modified Eagle’s medium (DMEM, containing 100 μg/ml streptomycin, 100 U/ml penicillin, and 10% vol/vol fetal bovine serum) or Dulbecco’s Modified Eagle Medium/Nutrient Mixture F-12 (DMEM/F-12, containing 100 μg/ml streptomycin, 100 U/ml penicillin, and 10% vol/vol fetal bovine serum) at a 5% CO2 incubator (37°C). The cells (approximately 50,000 cells per well) were cultured in a 96-well plate at a 5% CO2 incubator for 1 day. Then various concentrations of peptide solutions (50 μl) were added to the plate and incubated for another 1 day. The cells solution without peptides and blank samples without cells and peptides were prepared in the same 96-well plate as positive and negative controls, respectively. Subsequently, MTT (0.5 mg/ml, 20 μl per well) was added and the plate was incubated for another 4 h. Removed all supernatant from the plate and added 150 μl of dimethyl sulfoxide. Finally, a microplate reader (Tecan GENios F129004, Austria) was used to record the absorbance data at OD570 nm. Melittin was employed as a control peptide. The cell viability was calculated using the previously described equation ([Lai et al., 2021]).

IPEC-J2 = assay: MTT cytotoxicity assay; assay type: cell-based, porcine; conditions: 1 day incubation; for Cytotoxicity toward IPEC-J2: at the test concentrations
Procedure: as §3

E. coli 25922 = assay type: cell-based, Escherichia coli; conditions: 25922, 20 h
Text: as §1, §2

E. coli UB1005 = assay type: cell-based, Escherichia coli; conditions: UB1005, 20 h
Text: as §1, §2

P. aeruginosa 27853 = assay type: cell-based, Pseudomonas aeruginosa; conditions: 27853, 20 h
Text: as §1, §2

S. typhimurium 14028 = assay type: cell-based, Salmonella typhimurium; conditions: 14028, 20 h
Text: as §1, §2

S. typhimurium C7731 = assay type: cell-based, Salmonella typhimurium; conditions: C7731, 20 h
Text: as §1, §2

S. aureus 29213 = assay type: cell-based, Staphylococcus aureus; conditions: 29213, 20 h
Text: as §1, §2

S. epidermidis 12228 = assay type: cell-based; conditions: 12228, 20 h
Text: as §1, §2

E. faecalis 29212 = assay type: cell-based, Enterococcus faecalis; conditions: 29212, 20 h
Text: as §1, §2

MRSA 43300 = assay type: cell-based, Methicillin-resistant S. aureus; conditions: 43300, 20 h
Text: as §1, §2

9 bacterial strains = assay: Geometric mean MIC over the 9 bacterial strains; assay type: cell-based; conditions: geometric mean of the 9 strains of Table 1
Procedure: as §2

[1] = Escherichia coli, HP73, multidrug-resistant, colistin-resistant swine clinical isolate, broth microdilution, MHB, 37°C 20 h
[2] = Escherichia coli, HP74, multidrug-resistant, colistin-resistant swine clinical isolate, broth microdilution, MHB, 37°C 20 h
[3] = multidrug-resistant, colistin-resistant swine clinical isolate, broth microdilution, MHB, 37°C 20 h

CC(C)(O/N=C(\C(=O)N[C@@H]1C(=O)N2C(C(=O)[O-])=C(C[n+]3ccccc3)CS[C@H]12)c1csc(N)n1)C(=O)O [Ceftazidime]
MIC (E. coli HP73; [1]): 128 µM (≈ 70 µg/mL) | MIC (E. coli HP74; [2]): 32 µM (≈ 17.5 µg/mL)

CC[C@H]1OC(=O)[C@H](C)[C@@H](O[C@H]2C[C@@](C)(OC)[C@@H](O)[C@H](C)O2)[C@H](C)[C@@H](O[C@@H]2O[C@H](C)C[C@H](N(C)C)[C@H]2O)[C@](C)(O)C[C@@H](C)C(=O)[C@H](C)[C@@H](O)[C@]1(C)O [Erythromycin]
MIC (E. coli HP73; [1]): > 128 µM | MIC (E. coli HP74; [2]): > 128 µM

CNC(C)C1CCC(N)C(OC2C(N)CC(N)C(OC3OCC(C)(O)C(NC)C3O)C2O)O1 (stereo not shown) [Gentamicin]
MIC (E. coli HP73; [1]): 128 µM (≈ 61.1 µg/mL) | MIC (E. coli HP74; [2]): 128 µM (≈ 61.1 µg/mL)

CC[C@H](C)[C@H](NC(=O)CN)C(=O)NCC(=O)N[C@@H](C)C(=O)N[C@H](C(=O)N[C@@H](CC(C)C)C(=O)N[C@@H](CCCCN)C(=O)N[C@H](C(=O)N[C@@H](CC(C)C)C(=O)N[C@H](C(=O)N[C@H](C(=O)NCC(=O)N[C@@H](CC(C)C)C(=O)N1CCC[C@H]1C(=O)N[C@@H](C)C(=O)N[C@@H](CC(C)C)C(=O)N[C@H](C(=O)N[C@@H](CO)C(=O)N[C@@H](Cc1c[nH]c2ccccc12)C(=O)N[C@H](C(=O)N[C@@H](CCCCN)C(=O)N[C@@H](CCCNC(=N)N)C(=O)N[C@@H](CCCCN)C(=O)N[C@@H](CCCNC(=N)N)C(=O)N[C@@H](CCC(N)=O)C(=O)N[C@@H](CCC(N)=O)C(N)=O)[C@@H](C)CC)[C@@H](C)CC)[C@@H](C)O)[C@@H](C)O)C(C)C)C(C)C [Melittin, reference compound]
Concentration above which significant cytotoxicity toward HEK293T (HEK293T): greater than 8 μM | Concentration above which significant cytotoxicity toward IPEC-J2 (IPEC-J2): > 16 µM

CCn1cc(C(=O)O)c(=O)c2cc(F)c(N3CCNCC3)cc21 [Norfloxacin]
MIC (E. coli HP73; [1]): > 128 µM | MIC (E. coli HP74; [2]): 128 µM (≈ 40.9 µg/mL)

CC1COc2c(N3CCN(C)CC3)c(F)cc3c(=O)c(C(=O)O)cn1c23 (stereo not shown) [Ofloxacin]
MIC (E. coli HP73; [1]): > 128 µM | MIC (E. coli HP74; [2]): > 128 µM

CO[C@H]1/C=C/O[C@@]2(C)Oc3c(C)c(O)c4c(O)c(c(/C=N/N5CCN(C)CC5)c(O)c4c3C2=O)NC(=O)/C(C)=C\C=C\[C@H](C)[C@H](O)[C@@H](C)[C@@H](O)[C@@H](C)[C@H](OC(C)=O)[C@@H]1C [Rifampicin]
MIC (E. coli HP73; [1]): > 128 µM | MIC (E. coli HP74; [2]): 16 µM (≈ 13.2 µg/mL)

CN[C@H](CC(C)C)C(=O)N[C@H]1C(=O)N[C@@H](CC(N)=O)C(=O)N[C@H]2C(=O)N[C@H]3C(=O)N[C@H](C(=O)N[C@H](C(=O)O)c4cc(O)cc(O)c4-c4cc3ccc4O)[C@H](O)c3ccc(c(Cl)c3)Oc3cc2cc(c3O[C@@H]2O[C@H](CO)[C@@H](O)[C@H](O)[C@H]2O[C@H]2C[C@](C)(N)[C@H](O)[C@H](C)O2)Oc2ccc(cc2Cl)[C@H]1O [Vancomycin]
MIC (E. coli HP73; Escherichia coli, HP73, 20 h): 64 µM (≈ 92.8 µg/mL) | MIC (E. coli HP74; Escherichia coli, HP74, 20 h): 32 µM (≈ 46.4 µg/mL)

CCCC(=O)NCCCC[C@H](NC(=O)[C@H](CC(C)C)NC(=O)[C@H](CCCCN)NC(=O)[C@H](CCCCN)NC(=O)[C@H](CC(C)C)NC(=O)[C@H](CCCCNC(=O)CCC)NC(=O)[C@H](CCCCN)NC(=O)[C@H](CCCCN)NC(=O)[C@H](CC(C)C)NC(=O)[C@H](CCCCN)NC(=O)[C@H](CCCCN)NC(=O)[C@H](CC(C)C)NC(=O)[C@@H](N)Cc1c[nH]c2ccccc12)C(=O)N[C@@H](CCCCN)C(=O)N[C@@H](CCCCN)C(=O)O [WL-C4] (H-WLKKLKKK(Butyryl)LKKLK(Butyryl)KK-OH)
MICs, E. coli 25922 (E. coli 25922): 8 µM | MICs, E. coli UB1005 (E. coli UB1005): 4 µM | MICs, P. aeruginosa 27853 (P. aeruginosa 27853): 2 µM | MICs, S. typhimurium 14028 (S. typhimurium 14028): 4 µM | MICs, S. typhimurium C7731 (S. typhimurium C7731): 4 µM | MICs, S. aureus 29213 (S. aureus 29213): 16 µM | MICs, S. epidermidis 12228 (S. epidermidis 12228): 16 µM | MICs, E. faecalis 29212 (E. faecalis 29212): 32 µM | MICs, MRSA 43300 (MRSA 43300): 16 µM | GM, geometric mean MICs from the 9 bacterial strains (9 bacterial strains): 8.00 µM | Cytotoxicity toward HEK293T (HEK293T): no significant cytotoxicity | Cytotoxicity toward IPEC-J2 (IPEC-J2): no significant cytotoxicity

CCCCCCCCCC(=O)NCCCC[C@H](NC(=O)[C@H](CC(C)C)NC(=O)[C@H](CCCCN)NC(=O)[C@H](CCCCN)NC(=O)[C@H](CC(C)C)NC(=O)[C@H](CCCCNC(=O)CCCCCCCCC)NC(=O)[C@H](CCCCN)NC(=O)[C@H](CCCCN)NC(=O)[C@H](CC(C)C)NC(=O)[C@H](CCCCN)NC(=O)[C@H](CCCCN)NC(=O)[C@H](CC(C)C)NC(=O)[C@@H](N)Cc1c[nH]c2ccccc12)C(=O)N[C@@H](CCCCN)C(=O)N[C@@H](CCCCN)C(=O)O [WL-C10] (H-WLKKLKKK(Decanoyl)LKKLK(Decanoyl)KK-OH)
MICs, E. coli 25922 (E. coli 25922): >64 µM | MICs, E. coli UB1005 (E. coli UB1005): 16 µM | MICs, P. aeruginosa 27853 (P. aeruginosa 27853): >128 µM | MICs, S. typhimurium 14028 (S. typhimurium 14028): >128 µM | MICs, S. typhimurium C7731 (S. typhimurium C7731): >128 µM | MICs, S. aureus 29213 (S. aureus 29213): >128 µM | MICs, S. epidermidis 12228 (S. epidermidis 12228): >128 µM | MICs, E. faecalis 29212 (E. faecalis 29212): >128 µM | MICs, MRSA 43300 (MRSA 43300): >128 µM | GM, geometric mean MICs from the 9 bacterial strains (9 bacterial strains): 94.06 µM | Concentration above which significant cytotoxicity toward HEK293T (HEK293T): greater than 32 μM | Concentration above which significant cytotoxicity toward IPEC-J2 (IPEC-J2): greater than 32 μM

Colistin
MIC (E. coli HP73; [3]): 4 µM | MIC (E. coli HP74; [3]): 4 µM

Kanamycin A
MIC (E. coli HP73; [3]): >128 µM | MIC (E. coli HP74; [3]): >128 µM

Polymyxin B
MIC (E. coli HP73; [3]): 8 µM | MIC (E. coli HP74; [3]): 4 µM

WLKKLKKK(Ac)LKKLK(Ac)KK [WL-C2]
MICs, E. coli 25922 (E. coli 25922): 8 µM | MICs, E. coli UB1005 (E. coli UB1005): 8 µM | MICs, P. aeruginosa 27853 (P. aeruginosa 27853): 16 µM | MICs, S. typhimurium 14028 (S. typhimurium 14028): 16 µM | MICs, S. typhimurium C7731 (S. typhimurium C7731): 16 µM | MICs, S. aureus 29213 (S. aureus 29213): 64 µM | MICs, S. epidermidis 12228 (S. epidermidis 12228): 64 µM | MICs, E. faecalis 29212 (E. faecalis 29212): 128 µM | MICs, MRSA 43300 (MRSA 43300): 64 µM | GM, geometric mean MICs from the 9 bacterial strains (9 bacterial strains): 27.43 µM | Cytotoxicity toward HEK293T (HEK293T): no significant cytotoxicity | Cytotoxicity toward IPEC-J2 (IPEC-J2): no significant cytotoxicity

WLKKLKKKLKKLKKK [WL]
MICs, E. coli 25922 (E. coli 25922): 32 µM | MICs, E. coli UB1005 (E. coli UB1005): 32 µM | MICs, P. aeruginosa 27853 (P. aeruginosa 27853): 32 µM | MICs, S. typhimurium 14028 (S. typhimurium 14028): 32 µM | MICs, S. typhimurium C7731 (S. typhimurium C7731): 32 µM | MICs, S. aureus 29213 (S. aureus 29213): 128 µM | MICs, S. epidermidis 12228 (S. epidermidis 12228): 128 µM | MICs, E. faecalis 29212 (E. faecalis 29212): >128 µM | MICs, MRSA 43300 (MRSA 43300): 128 µM | GM, geometric mean MICs from the 9 bacterial strains (9 bacterial strains): 64.00 µM | Cytotoxicity toward HEK293T (HEK293T): no significant cytotoxicity | Cytotoxicity toward IPEC-J2 (IPEC-J2): no significant cytotoxicity
